In ChEMBL document CHEMBL1157712, “Hit to lead account of the discovery of bisbenzamide and related ureidobenzamide inhibitors of Rho kinase” (J Med Chem, 2010):
In brackets after ≈: the same amount, converted by molar mass.

How the values were obtained:
[1] = (§1) Permeability from apical to basolateral side in human Caco-2 cells; assay type: ADME, cell-based; conditions: Caco-2, read-out: permeability
[2] = Permeability from basolateral to apical side in human Caco-2 cells; assay type: ADME, cell-based; conditions: read-out: permeability
[3] = target: T1, Protein kinase C epsilon type (Homo sapiens, UniProt Q02156); assay: Inhibition of PKCepsilon
T1 sequence (Q02156 whole entry): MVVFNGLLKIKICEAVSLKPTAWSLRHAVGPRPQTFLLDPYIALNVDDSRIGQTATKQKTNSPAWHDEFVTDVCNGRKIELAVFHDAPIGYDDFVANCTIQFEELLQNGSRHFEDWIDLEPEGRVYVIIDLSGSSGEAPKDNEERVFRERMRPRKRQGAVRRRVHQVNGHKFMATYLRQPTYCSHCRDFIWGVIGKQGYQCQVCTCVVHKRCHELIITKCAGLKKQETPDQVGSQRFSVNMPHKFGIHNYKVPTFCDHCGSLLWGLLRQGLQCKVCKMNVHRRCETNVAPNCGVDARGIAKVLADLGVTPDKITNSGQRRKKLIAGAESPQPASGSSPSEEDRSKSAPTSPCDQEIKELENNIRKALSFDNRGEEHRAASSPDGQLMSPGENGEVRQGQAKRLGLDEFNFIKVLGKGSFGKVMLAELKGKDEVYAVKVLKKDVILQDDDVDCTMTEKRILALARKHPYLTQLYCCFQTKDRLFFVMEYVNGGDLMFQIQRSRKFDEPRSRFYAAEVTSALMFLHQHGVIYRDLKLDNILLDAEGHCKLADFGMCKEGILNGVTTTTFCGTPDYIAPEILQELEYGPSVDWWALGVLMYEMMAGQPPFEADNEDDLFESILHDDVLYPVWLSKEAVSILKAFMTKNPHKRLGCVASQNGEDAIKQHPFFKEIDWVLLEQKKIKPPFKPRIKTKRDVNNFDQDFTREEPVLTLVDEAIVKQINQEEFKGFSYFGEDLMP

[4] = Membrane permeability by PAMPA assay; assay type: ADME; conditions: read-out: permeability
Rattus norvegicus = organism: Rattus norvegicus; assay: Induction of relaxation activity of phenylephrine-induced Sprague-Dawley rat aortic ring contraction; assay type: functional; conditions: Aorta
[5] = Solubility at pH 7.4; assay type: physicochemical; conditions: buffer
Cytochrome P450 1A2 [6] = target: T2, Cytochrome P450 1A2 (Homo sapiens, UniProt P05177); assay: Inhibition of human CYP1A2 by LCMS/MS assay; assay type: ADME
T2 sequence (P05177 whole entry): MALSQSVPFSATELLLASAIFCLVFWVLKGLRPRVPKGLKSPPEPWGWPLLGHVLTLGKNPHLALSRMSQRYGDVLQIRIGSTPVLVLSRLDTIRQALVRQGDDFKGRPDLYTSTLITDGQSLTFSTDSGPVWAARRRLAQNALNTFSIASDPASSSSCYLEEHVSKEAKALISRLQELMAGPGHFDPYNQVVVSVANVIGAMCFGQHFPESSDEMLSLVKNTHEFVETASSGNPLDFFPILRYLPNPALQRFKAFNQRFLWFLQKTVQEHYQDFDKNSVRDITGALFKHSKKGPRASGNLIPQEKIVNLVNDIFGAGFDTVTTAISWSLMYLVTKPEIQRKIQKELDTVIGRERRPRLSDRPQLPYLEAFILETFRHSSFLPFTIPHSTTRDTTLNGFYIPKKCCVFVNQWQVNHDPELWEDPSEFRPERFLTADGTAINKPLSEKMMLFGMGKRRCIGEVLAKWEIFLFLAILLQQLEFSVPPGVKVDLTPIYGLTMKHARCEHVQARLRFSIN

Cytochrome P450 2C9 [7] = target: T3, Cytochrome P450 2C9 (Homo sapiens, UniProt P11712); assay: Inhibition of human CYP2C9 by LCMS/MS assay; assay type: ADME
T3 sequence (P11712 whole entry): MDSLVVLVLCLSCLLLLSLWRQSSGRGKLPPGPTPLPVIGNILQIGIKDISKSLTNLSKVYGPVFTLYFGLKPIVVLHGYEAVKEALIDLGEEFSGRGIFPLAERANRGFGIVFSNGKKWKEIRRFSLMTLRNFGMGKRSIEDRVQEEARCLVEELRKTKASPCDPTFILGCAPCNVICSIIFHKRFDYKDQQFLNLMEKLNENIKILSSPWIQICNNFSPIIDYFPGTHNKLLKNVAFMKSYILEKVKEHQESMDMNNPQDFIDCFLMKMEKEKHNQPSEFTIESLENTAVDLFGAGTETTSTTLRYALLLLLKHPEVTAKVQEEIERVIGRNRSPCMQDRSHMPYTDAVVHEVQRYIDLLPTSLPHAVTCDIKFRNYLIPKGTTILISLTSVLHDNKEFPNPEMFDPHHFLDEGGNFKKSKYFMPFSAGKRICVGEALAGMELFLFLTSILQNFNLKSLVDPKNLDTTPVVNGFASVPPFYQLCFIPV

Cytochrome P450 2D6 [8] = target: T4, Cytochrome P450 2D6 (Homo sapiens, UniProt P10635); assay: Inhibition of human CYP2D6 by LCMS/MS assay; assay type: ADME
T4 sequence (P10635 whole entry): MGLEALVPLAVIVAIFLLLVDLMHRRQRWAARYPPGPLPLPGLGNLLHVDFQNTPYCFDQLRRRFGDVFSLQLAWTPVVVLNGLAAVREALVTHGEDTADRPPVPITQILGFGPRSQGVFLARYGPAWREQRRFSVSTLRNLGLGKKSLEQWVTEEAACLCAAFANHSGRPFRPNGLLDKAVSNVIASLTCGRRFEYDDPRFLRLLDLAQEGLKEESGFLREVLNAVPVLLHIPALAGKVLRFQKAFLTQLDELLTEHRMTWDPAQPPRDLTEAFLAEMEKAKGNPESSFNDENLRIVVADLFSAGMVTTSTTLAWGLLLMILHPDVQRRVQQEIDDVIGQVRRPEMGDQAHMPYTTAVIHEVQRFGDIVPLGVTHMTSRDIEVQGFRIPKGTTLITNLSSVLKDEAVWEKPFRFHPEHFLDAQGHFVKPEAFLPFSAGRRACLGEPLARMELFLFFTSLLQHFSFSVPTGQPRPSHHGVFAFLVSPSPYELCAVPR

Cytochrome P450 3A4 [9] = target: T5, Cytochrome P450 3A4 (Homo sapiens, UniProt P08684); assay: Inhibition of human CYP3A4 by LCMS/MS assay; assay type: ADME
T5 sequence (P08684 whole entry): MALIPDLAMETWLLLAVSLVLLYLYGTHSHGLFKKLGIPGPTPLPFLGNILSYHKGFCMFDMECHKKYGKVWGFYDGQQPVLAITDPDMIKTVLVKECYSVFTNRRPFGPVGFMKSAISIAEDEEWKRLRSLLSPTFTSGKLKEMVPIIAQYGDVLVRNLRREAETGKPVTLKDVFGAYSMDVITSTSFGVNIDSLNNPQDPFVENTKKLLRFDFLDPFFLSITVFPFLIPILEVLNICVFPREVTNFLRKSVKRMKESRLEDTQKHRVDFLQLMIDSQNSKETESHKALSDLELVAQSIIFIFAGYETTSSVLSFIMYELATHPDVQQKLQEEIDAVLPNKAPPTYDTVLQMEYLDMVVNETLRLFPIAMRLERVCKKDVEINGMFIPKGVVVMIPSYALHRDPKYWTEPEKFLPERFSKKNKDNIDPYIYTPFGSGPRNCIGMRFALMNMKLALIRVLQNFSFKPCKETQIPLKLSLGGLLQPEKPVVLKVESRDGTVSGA

[10] = target: Serine/threonine-protein kinase N2 (Homo sapiens, UniProt Q16513)
[11] = target: Serine/threonine-protein kinase MRCK beta (Homo sapiens) (UniProt Q9Y5S2); assay: Inhibition of CDC42BPB
Serine/threonine-protein kinase MRCK beta (Homo sapiens), sequence (Q9Y5S2 whole entry, looked up): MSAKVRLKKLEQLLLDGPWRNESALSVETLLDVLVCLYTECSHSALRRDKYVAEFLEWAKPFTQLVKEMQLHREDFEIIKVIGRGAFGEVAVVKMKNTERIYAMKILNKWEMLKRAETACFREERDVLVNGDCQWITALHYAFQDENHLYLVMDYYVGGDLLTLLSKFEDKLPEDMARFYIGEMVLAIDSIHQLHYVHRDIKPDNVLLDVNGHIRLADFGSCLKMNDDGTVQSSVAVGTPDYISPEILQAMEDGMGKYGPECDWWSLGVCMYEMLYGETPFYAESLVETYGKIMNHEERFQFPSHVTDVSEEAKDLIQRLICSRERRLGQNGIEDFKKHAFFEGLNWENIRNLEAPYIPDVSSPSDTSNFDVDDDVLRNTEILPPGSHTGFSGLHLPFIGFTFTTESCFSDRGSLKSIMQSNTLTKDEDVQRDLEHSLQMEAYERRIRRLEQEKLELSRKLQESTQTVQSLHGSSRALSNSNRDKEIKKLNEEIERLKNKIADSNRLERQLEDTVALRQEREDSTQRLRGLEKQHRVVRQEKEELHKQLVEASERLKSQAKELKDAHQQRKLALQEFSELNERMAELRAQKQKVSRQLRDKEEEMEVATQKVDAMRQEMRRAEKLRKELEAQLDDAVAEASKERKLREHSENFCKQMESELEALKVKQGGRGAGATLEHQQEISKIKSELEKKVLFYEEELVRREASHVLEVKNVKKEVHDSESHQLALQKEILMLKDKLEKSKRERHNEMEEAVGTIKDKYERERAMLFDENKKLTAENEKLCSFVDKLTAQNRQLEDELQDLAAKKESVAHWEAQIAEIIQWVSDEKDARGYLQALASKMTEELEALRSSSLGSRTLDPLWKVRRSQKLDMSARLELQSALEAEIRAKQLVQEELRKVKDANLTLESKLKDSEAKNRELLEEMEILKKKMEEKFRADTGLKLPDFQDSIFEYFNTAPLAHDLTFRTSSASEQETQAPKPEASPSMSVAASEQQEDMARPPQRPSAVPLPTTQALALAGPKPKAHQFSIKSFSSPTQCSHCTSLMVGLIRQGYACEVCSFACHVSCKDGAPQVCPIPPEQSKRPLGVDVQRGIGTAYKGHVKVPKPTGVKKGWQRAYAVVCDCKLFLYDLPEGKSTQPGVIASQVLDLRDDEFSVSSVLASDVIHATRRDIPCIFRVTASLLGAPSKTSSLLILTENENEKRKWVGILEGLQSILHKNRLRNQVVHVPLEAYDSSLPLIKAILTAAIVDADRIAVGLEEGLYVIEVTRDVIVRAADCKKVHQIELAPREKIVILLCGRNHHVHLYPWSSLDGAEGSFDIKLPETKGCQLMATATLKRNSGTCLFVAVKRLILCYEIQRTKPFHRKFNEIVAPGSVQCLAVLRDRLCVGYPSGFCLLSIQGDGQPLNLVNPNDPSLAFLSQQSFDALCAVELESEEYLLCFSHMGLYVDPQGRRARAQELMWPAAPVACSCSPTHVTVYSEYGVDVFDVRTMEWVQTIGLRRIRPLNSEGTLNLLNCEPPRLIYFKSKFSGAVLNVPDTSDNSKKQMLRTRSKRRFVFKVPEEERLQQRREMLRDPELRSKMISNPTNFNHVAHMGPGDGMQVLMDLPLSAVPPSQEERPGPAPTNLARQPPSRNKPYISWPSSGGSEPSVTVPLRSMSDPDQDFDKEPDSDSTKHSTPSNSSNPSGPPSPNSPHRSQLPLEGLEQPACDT

[12] = Metabolic stability in human liver microsomes assessed as half life; assay type: ADME, Microsome
Cytochrome P450 1A2 [13] = target: T2, Cytochrome P450 1A2; assay: Inhibition of human CYP1A2 by fluorescence assay; assay type: ADME
Cytochrome P450 2C9 [14] = target: T3, Cytochrome P450 2C9; assay: Inhibition of human CYP2C9 by fluorescence assay; assay type: ADME
Cytochrome P450 2C19 = Cytochrome P450 2C19 (Homo sapiens, UniProt P33261); assay: Inhibition of human CYP2C19 by fluorescence assay; assay type: ADME
Cytochrome P450 2C19, sequence (P33261 whole entry): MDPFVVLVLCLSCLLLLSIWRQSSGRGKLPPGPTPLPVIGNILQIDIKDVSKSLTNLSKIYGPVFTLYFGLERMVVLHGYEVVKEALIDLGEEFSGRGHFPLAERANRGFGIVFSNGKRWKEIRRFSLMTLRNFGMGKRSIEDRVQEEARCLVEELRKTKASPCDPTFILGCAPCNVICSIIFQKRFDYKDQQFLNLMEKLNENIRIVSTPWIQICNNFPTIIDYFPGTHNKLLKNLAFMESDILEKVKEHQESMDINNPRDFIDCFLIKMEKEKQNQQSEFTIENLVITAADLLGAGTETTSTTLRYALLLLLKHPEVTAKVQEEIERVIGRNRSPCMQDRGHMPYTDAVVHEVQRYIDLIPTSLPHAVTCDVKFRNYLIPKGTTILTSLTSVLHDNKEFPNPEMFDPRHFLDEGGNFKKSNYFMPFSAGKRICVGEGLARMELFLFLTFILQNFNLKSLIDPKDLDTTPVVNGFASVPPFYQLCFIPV

Cytochrome P450 2D6 [15] = target: T4, Cytochrome P450 2D6; assay: Inhibition of human CYP2D6 by fluorescence assay; assay type: ADME
[16] = target: Rho-associated protein kinase 1 (Homo sapiens, UniProt Q13464); assay: Inhibition of human ROCK1 by homogenous luciferase assay
[17] = Solubility at pH 4.5; assay type: physicochemical; conditions: buffer
Cytochrome P450 3A4 [18] = target: T5, Cytochrome P450 3A4; assay: Inhibition of human CYP3A4 using BFC substrate by fluorescence assay; assay type: ADME
Cytochrome P450 3A4 [19] = target: T5, Cytochrome P450 3A4; assay: Inhibition of human CYP3A4 using BQ substrate by fluorescence assay; assay type: ADME
[20] = target: T6, Rho-associated protein kinase 2 (Homo sapiens, UniProt O75116)
T6 sequence (O75116 whole entry): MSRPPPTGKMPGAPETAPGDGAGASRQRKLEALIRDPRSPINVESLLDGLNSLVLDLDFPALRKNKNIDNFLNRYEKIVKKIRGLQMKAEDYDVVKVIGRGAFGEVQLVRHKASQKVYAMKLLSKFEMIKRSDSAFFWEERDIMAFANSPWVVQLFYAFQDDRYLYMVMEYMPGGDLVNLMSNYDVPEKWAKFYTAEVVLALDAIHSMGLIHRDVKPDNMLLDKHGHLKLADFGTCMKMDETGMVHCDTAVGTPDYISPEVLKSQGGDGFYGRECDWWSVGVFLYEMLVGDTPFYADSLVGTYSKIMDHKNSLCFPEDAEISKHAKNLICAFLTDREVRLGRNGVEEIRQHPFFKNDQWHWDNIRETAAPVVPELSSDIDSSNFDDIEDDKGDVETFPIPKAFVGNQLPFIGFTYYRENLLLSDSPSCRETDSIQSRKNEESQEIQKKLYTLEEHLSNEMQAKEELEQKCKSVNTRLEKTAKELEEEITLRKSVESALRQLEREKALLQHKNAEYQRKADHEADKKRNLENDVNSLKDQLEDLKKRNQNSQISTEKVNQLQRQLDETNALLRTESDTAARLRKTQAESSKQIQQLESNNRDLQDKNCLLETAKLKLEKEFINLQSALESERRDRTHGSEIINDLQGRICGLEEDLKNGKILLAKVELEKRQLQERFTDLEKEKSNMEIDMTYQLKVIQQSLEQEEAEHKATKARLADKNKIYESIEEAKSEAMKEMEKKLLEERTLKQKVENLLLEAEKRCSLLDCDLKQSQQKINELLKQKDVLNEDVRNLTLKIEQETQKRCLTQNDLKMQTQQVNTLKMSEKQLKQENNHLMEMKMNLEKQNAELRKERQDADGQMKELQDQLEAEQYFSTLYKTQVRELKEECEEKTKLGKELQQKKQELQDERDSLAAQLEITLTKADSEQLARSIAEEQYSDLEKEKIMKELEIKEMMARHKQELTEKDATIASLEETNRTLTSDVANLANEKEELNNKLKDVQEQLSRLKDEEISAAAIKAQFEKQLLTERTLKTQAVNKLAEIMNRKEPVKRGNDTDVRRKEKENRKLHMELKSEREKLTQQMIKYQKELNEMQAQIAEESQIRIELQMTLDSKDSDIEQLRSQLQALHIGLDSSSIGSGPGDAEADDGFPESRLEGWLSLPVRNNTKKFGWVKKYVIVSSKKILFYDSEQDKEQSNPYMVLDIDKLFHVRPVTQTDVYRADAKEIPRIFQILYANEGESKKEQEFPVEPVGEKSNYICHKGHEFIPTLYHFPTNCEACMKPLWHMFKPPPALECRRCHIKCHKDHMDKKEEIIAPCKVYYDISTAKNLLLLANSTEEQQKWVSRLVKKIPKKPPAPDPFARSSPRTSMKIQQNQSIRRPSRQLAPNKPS
Description: Inhibition of human ROCK2 by homogenous luciferase assay

in vitro = conditions: human, Caco-2
Description: Ratio of permeability from basolateral to apical side over apical to basolateral side in human Caco-2 cells

Caco-2 = assay: as §1; assay type: ADME, cell-based; conditions: caco-2, BLD = below limit of detection
[21] = Bioavailability in rat; assay type: ADME, organism-based; conditions: in vivo
[22] = target: T6, Rho-associated protein kinase 2; assay: Inhibition of human ROCK2 by IMAP assay

SMILES | Papp A→B [1] | Papp B→A [2] | IC50 [3] | Papp [4] | IC50 (Rattus norvegicus) | solubility [5] | IC50 [10] | IC50 [11] | half-life [12] | IC50 (Cytochrome P450 1A2 [13]) | IC50 (Cytochrome P450 2C9 [14]) | IC50 (Cytochrome P450 2C19) | IC50 (Cytochrome P450 2D6 [15]) | IC50 (Cytochrome P450 3A4 [18]) | IC50 (Cytochrome P450 3A4 [19]) | IC50 [20] | other results
COc1ccc(C(=O)NCc2cccc(C(=O)Nc3ccc(CN(C)C)cc3)c2)cc1Cl | 7.7 ×10⁻⁶ cm/s | 45.3 ×10⁻⁶ cm/s | > 5 µM | 24 ×10⁻⁶ cm/s | 1.6 µM | > 96 µg/mL | > 5 µM | > 5 µM |  |  |  |  |  |  |  |  | IC50 (Cytochrome P450 1A2 [6]): > 30 µM; IC50 (Cytochrome P450 2C9 [7]): > 30 µM; IC50 (Cytochrome P450 2D6 [8]): > 30 µM; IC50 (Cytochrome P450 3A4 [9]): > 30 µM
COc1ccc(C(=O)NCc2cccc(C(=O)NCCc3ccncc3)c2)cc1OC | 0.5 ×10⁻⁶ cm/s | 29.1 ×10⁻⁶ cm/s |  |  | 1.9 µM | 63 µg/mL (≈ 150 µM) |  |  | 10 min | > 30 µM | 16 µM | > 30 µM | > 30 µM | 4 µM | 21 µM | 2.3 µM | IC50 [16]: 4.3 µM; solubility [17]: > 100 µg/mL; efflux ratio (in vitro): 58
COc1ccc(C(=O)NCc2cccc(C(=O)Nc3ccc(CN(C)C)cc3)c2)cc1OC |  | 14.6 ×10⁻⁶ cm/s | > 5 µM | 10 ×10⁻⁶ cm/s | 6 µM | > 100 µg/mL | > 5 µM | > 5 µM | 66 min | > 30 µM | > 30 µM | > 30 µM | > 30 µM | 8.5 µM | > 30 µM | 0.069 µM | permeability (Caco-2): BLD; bioavailability [21]: 1.8%; IC50 [22]: 0.23 µM
